{
  "source": "patent US20230233695A1",
  "about": "“MITHRAMYCIN A NANOPARTICLES FOR CANCER TREATMENT” (priority 2021, published 2023)",
  "key": {"[1]": {"tested_on": "RD-ES", "test": "XTT cell viability assay, RD-ES", "assay_type": "cell-based", "conditions": "72 h, read-out: Viability IC50", "description": "(§1) Cell viability assays. For viability assays, four EWS:Fli1 fusion tumor cell lines (RD-ES, SK-ES-1, A673, and TC-71), one human embryonic kidney cell line (293.T), one ES tumor cell line with ERG fusion (CHLA-25), one fetal kidney cell line (HEK293.T), one hepatoblastoma cell line (HepG2), one chronic myeloid leukemia (MEG-01), and one acute monocytic leukemia (THP-1) cell line were plated at 5000 cells/well in 100 μL growth media in 96-well plates. After overnight incubation, 50 μL of growth media containing mithramycin A (MithA) (Cayman Chemical, Ann Arbor, Mi. Item Number 11434) or boronic acid-conjugated nano-MithA (MANP) (0.12 nM to 500 nM, final) or dimethyl sulfoxide (DMSO, 0.01% v/v) vehicle was added to the wells, and cell viability assays were performed 72 hours later. The cells were incubated with the activated-XTT solution (mixture of 2% final concentration of activation reagent with the XTT reagent) from ATCC (Catalog Number 30-1011K, XTT Cell Proliferation Assay Kit) for 3 hours prior to recording absorbance. The cell viability was determined by measuring the absorbance wavelength at 475 nm and reference wavelength at 650 nm on an Infinite M200 plate reader (Tecan Group, Ltd. Mannedorf, Switzerland). […]"}, "[2]": {"tested_on": "SK-ES-1", "test": "XTT cell viability assay, SK-ES-1", "assay_type": "cell-based", "conditions": "Homo sapiens, SK-ES1, 72 h, read-out: Viability IC50", "description": "as §1"}, "[3]": {"tested_on": "TC-71", "test": "XTT cell viability assay, TC-71", "assay_type": "cell-based", "conditions": "TC-71, 72 h, read-out: Viability IC50", "description": "as §1"}, "[4]": {"tested_on": "CHLA-25", "test": "XTT cell viability assay, CHLA-25", "assay_type": "cell-based", "conditions": "72 h, read-out: Viability IC50", "description": "as §1"}, "[5]": {"tested_on": "HEK293.T", "test": "XTT cell viability assay, HEK293.T", "assay_type": "cell-based", "conditions": "Homo sapiens, HEK-293T, 72 h, read-out: Viability IC50", "description": "as §1"}, "[6]": {"tested_on": "MEG-01", "test": "XTT cell viability assay, MEG-01", "assay_type": "cell-based", "conditions": "read-out: Viability IC50, MEG-01, chronic myeloid leukemia, BRC:ABL, 72 hours", "description": "as §1"}, "[7]": {"tested_on": "THP-1", "test": "XTT cell viability assay, THP-1", "assay_type": "cell-based", "conditions": "Homo sapiens, THP-1, 72 h, read-out: Viability IC50", "description": "as §1"}, "[8]": {"tested_on": "EWS:Fli1+ cells", "test": "XTT cell viability assay, average over EWS:Fli1+ cell lines", "assay_type": "cell-based", "conditions": "read-out: average IC50 against EWS:Fli1+ cells", "description": "as §1"}, "[9]": {"tested_on": "Female C57BL/6J mice", "test": "In vivo toxicity: serum chemistry", "description": "(§2) In vivo toxicity of MithA and MANP. Cohorts of n=6-7 C57BL/6J females, 8-10 wko were randomized to receive either intravenous or intraperitoneal administration of saline control vehicle, blank polymer, MithA, or MANP as described in TABLES 2A and 2B. Body weight loss exceeding 20%, death, morbidity, changes in behavior, and any other sign of local or systemic toxicity were recorded.\nFor serum chemistry blood was collected through a 20G needle 24 h after the last dose, by cardiac puncture under isoflurane anesthesia. The blood was distributed to EDTA-coated (100 uL) or clot-activator (>200 uL) Multivette-600 tubes (Sarstedt, Newton, N.C.) respectively for hematology and serum chemistry analyses. For serum isolation, blood allowed to clot at room temperature for at least 20 minutes, centrifuged 10 kG for 10 minutes, aliquoted and frozen at −80° C. until analysis on a VetScan VS2 instrument (Zoetis, Parsippany-Troy Hills, N.J.) with Zoetis Preventive Profile Plus panel for chemistry."}, "[10]": {"tested_on": "Female C57BL/6J mice", "test": "In vivo toxicity: liver weight and histopathology", "description": "as §2\nThe liver was harvested for histopathological assessment, weighed, and fixed in 4% paraformaldehyde for 24 hours in the 4° C. and processed for and embedded in paraffin. After embedding, sections were cut at […] thickness and mounted on poly-L-lysine-coated glass slides. Sections were stained with Ehrlich's Hematoxylin and Eosin-Phloxine solutions, Periodic Acid-Schiff (+/− pretreatment with 1% Diastase for 30 min), or Hall's Bile stain with Picrosirius red counter stain. Slides were then dehydrated, cover slipped and imaged on Nikon E800 microscope for qualitative assessment of liver injury. In vivo toxicity of Mitha and MANP study design. (A) study design for supplemental figures. (B) study design for FIGS. 11A-11Q."}, "[11]": {"tested_on": "EWS:Fli1+ cells", "conditions": "previous study; read-out: average IC50 in EWS:Fli1 cell lines, previous study; cited from earlier work"}, "[12]": {"conditions": "cited from earlier work"}, "[13]": {"conditions": "5x2 mg/kg i.v., compared to saline vehicle"}, "[14]": {"conditions": "5x4 mg/kg i.p., relative to saline vehicle"}, "[15]": {"conditions": "five doses 2 mg/kg (eq) on alternating days"}},
  "note": "Values joined by “and” are separate entries in the source; they are usually repeats but may differ in a detail not shown here. Equal entries are not always repeated. Where two headings read alike, the source gives them in different places.",
  "data": [
    {"smiles": "CO[C@H](C(=O)[C@@H](O)[C@@H](C)O)[C@@H]1Cc2cc3cc(O[C@H]4C[C@@H](O[C@H]5C[C@@H](O)[C@H](O)[C@@H](C)O5)[C@H](O)[C@@H](C)O4)c(C)c(O)c3c(O)c2C(=O)[C@H]1O[C@H]1C[C@@H](O[C@H]2C[C@@H](O[C@H]3C[C@](C)(O)[C@H](O)[C@@H](C)O3)[C@@H](O)[C@@H](C)O2)[C@H](O)[C@@H](C)O1", "note": "[MithA, (2S,3S)-2-[(2S,4R,5R,6R)-4-[(2S,4R,5S,6R)-4-[(2S,4S,5R,6R)-4,5-dihydroxy-4,6-dimethyloxan-2-yl]oxy-5-hydroxy-6-methyloxan-2-yl]oxy-5-hydroxy-6-methyloxan-2-yl]oxy-3-[(1 S,3S,4R)-3,4-dihydroxy-1-methoxy-2-oxopentyl]-6-[(2S,4R,5R,6R)-4-[(2S,4R,5S,6R)-4,5-dihydroxy-6-methyloxan-2-yl]oxy-5-hydroxy-6-methyloxan-2-yl]oxy-8,9-dihydroxy-7-methyl-3,4-dihydro-2H-anthracen-1-one]", "values": [
      {"measurement": "IC50", "setting": "[1]", "value": 6.2, "unit": "nM"},
      {"measurement": "IC50", "setting": "[2]", "value": 11.9, "unit": "nM"},
      {"measurement": "IC50", "setting": "[3]", "value": 9.3, "unit": "nM"},
      {"measurement": "IC50", "setting": "[4]", "value": 349, "unit": "nM"},
      {"measurement": "IC50", "setting": "[5]", "value": 90.4, "unit": "nM"},
      {"measurement": "IC50", "setting": "[6]", "value": 37.8, "unit": "nM"},
      {"measurement": "IC50", "setting": "[7]", "value": 234, "unit": "nM"},
      {"measurement": "IC50", "setting": "[8]", "value": 10, "unit": "nM"},
      {"measurement": "glucose level", "setting": "[9]; 5 consecutive days i.p. 1 mg/kg, vs saline (p=0.005)", "value": "decreased"},
      {"measurement": "liver toxicity", "setting": "[9]; 5x2 mg/kg (eq.) i.v. alternating days", "value": "led to hepatoxicity"},
      {"measurement": "decrease in glucose serum level", "setting": "[9]; [13]", "value": 1.9, "unit": "fold"},
      {"measurement": "increase in ALT", "setting": "[9]; [13]", "value": 20.9, "unit": "fold"},
      {"measurement": "increase in AST", "setting": "[9]; [13]", "value": 4.1, "unit": "fold"},
      {"measurement": "increase in total bilirubin", "setting": "[9]; [13]", "value": 1.5, "unit": "fold"},
      {"measurement": "decrease in glucose level", "setting": "[9]; [14]", "value": 1.9, "unit": "fold"},
      {"measurement": "increase of alanine transaminase (ALT)", "setting": "[9]; [14]", "value": 16.9, "unit": "fold"},
      {"measurement": "increase of aspartate aminotransferase (AST)", "setting": "[9]; [14]", "value": 5.4, "unit": "fold"},
      {"measurement": "kidney injury or electrolyte imbalance", "setting": "[9]; five i.v. injections on alternating days, any treatment group", "value": "no evidence of kidney injury or electrolyte imbalance"},
      {"measurement": "changes in serum chemistry", "setting": "[9]; single i.p. 4 mg/kg", "value": "no significant changes"},
      {"measurement": "increase in ALT liver enzyme level", "setting": "[9]; single i.v. 4 mg/kg, in comparison to equivalent dose of MANP (p=0.0381)", "value": 1.7, "unit": "fold"},
      {"measurement": "liver weight", "setting": "[10]; 5 consecutive days i.p. 4 mg/kg, vs saline", "value": "liver weight reduction"},
      {"measurement": "liver weight", "setting": "[10]; 5x2 mg/kg i.v. alternating days", "value": "liver weight reduction"},
      {"measurement": "liver histology", "setting": "[10]; 5x4 mg/kg i.p.", "value": "periportal necrosis with central fatty degeneration, glycogen depletion and bile acid retention"},
      {"measurement": "liver histology, Hall's bile stain", "setting": "[10]; [15]", "value": "retention of bile in large vacuoles"},
      {"measurement": "liver histology, Hematoxylin and Eosin stain", "setting": "[10]; [15]", "value": "periportal hepatocellular necrosis and infiltrates of inflammatory cells, and distension of collecting ducts"},
      {"measurement": "liver histology, Periodic Acid-Schiff (glycogen)", "setting": "[10]; five doses 2 mg/kg on alternating days", "value": "glycogen depletion"},
      {"measurement": "IC50", "setting": "[11]", "value": 12, "unit": "nM"},
      {"measurement": "patients with reversible grade 4 ALT/AST elevation", "setting": "[12]; dose escalation, single-agent therapy", "value": "2/8 and 2 out of 8"},
      {"measurement": "serum level reached", "setting": "[12]; level hypothesized to inhibit EWS:Fli1 activity, not reached before adverse effects", "value": "< 50", "unit": "nM"}
    ]}
  ]
}
